Assay: Apparent permeability across apical to basolateral side in human Caco-2 cells monolayer
Format: ADME, cell-based

| SMILES | Papp |
| --- | --- |
| C=CC(=O)Nc1ccc(OC)c(Nc2cc(-c3[nH]c(SC)nc3-c3cccc(NC(=O)c4c(F)ccc(O)c4CN4C(=O)c5ccccc5C4=O)c3)ccn2)c1 | Impermeable |
| CSc1nc(-c2cccc(NC(=O)c3c(F)ccc(O)c3CN3C(=O)c4ccccc4C3=O)c2)c(-c2ccnc(NC(C)=O)c2)[nH]1 | Impermeable |
